{"source": "patent US20150080475A1", "about": "“Memantine Protects Inflammation-Related Degeneration of Dopamine Neurons Through Inhibition of Over-Activated Microglia and Release of Neurotrophic Factors From Astroglia” (priority 2009, published 2015)", "key": {"[1]": {"test_system": "TNF-α", "test": "TNF-α ELISA after LPS", "assay_type": "cell-based", "settings": "4 h after LPS treatment", "procedure": "The production of TNF-α was measured with a commercial ELISA kit from R&D Systems. The PGE2 release was measured with a commercial ELISA kit from Cayman Chemical Company.\nNeuron-glia cultures were pretreated for 30 min with MMT (3 μM) or vehicle before LPS stimulation. […] Production of superoxide (30 min after LPS) and iROS (2 h after LPS) was decreased by MMT treatment (FIGS. 6A and 6B). […] The production of PGE2 in cultures pretreated with 3 and 10 μM MMT decreased by 23% and 27% respectively (FIG. 6E)."}, "[2]": {"target": "T1, gp 91 (Homo sapiens, UniProt P04839)", "T1 sequence (P04839 1-570)": "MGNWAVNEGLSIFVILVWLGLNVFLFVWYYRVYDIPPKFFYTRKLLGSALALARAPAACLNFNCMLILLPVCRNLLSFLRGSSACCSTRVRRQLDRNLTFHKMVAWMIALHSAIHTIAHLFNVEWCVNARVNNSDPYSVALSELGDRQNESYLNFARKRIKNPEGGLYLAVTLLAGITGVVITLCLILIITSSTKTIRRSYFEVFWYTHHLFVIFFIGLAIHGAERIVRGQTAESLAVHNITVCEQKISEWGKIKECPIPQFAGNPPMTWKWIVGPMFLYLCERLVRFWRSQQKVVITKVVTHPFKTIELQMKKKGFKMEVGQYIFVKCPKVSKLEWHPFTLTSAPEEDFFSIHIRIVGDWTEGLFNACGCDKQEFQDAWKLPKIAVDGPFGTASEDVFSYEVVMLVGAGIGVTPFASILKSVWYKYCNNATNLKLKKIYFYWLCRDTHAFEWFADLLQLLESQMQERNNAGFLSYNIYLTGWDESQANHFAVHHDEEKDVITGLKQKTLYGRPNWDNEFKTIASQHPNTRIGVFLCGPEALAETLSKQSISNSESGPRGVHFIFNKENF", "T1 sequence (P13498 1-195 partner)": "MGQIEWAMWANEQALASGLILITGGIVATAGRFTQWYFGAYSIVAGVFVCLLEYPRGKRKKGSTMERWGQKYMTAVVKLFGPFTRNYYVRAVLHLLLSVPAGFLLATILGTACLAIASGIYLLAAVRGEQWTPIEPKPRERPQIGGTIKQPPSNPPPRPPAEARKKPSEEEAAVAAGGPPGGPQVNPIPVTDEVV", "test": "Competition of [3H]-labeled naloxine binding", "settings": "preliminary data", "text": "Results from two sets of experiments support this conclusion. […] Thus, the failure for MMT to protect LPS-induced DA neurons toxicity in NADPH oxidase-deficient neuron/glia cultures implies a critical role of this enzyme in mediating the neuroprotective effect of MMT. The present invention determines the binding site of MMT in microglia."}, "[3]": {"test_system": "DA neurons", "test": "Neurotrophic effect in neuron-enriched, microglia-added and microglia-depleted cultures (DA uptake)", "assay_type": "cell-based, rat", "procedure": "Astrocytes, not micrglia, contribute to the neurotrophic effect of MMT. Neuron-enriched cultures were treated with vehicle and 1-10 μM MMT (FIG. 10A); 10% (5×10^4/well) of microglia were added back to neuron-enriched cultures and treated with 10 μM MMT (FIG. 10B); Depleted microglia cultures were treated with 10 μM MMT (FIG. 10C). ┌^3H┘ DA uptake was assayed 7 days after treatment. Values are mean±SEM of three independent experiments. *p<0.05, compared with corresponding vehicle-treated control cultures.\nIn addition to neuroprotection against LPS-induced neurotoxicity, MMT is found to have high potency of neurotrophic effect on DA neurons in rat primary mesencephalic neuron-glia cultures.\nMesencephalic neuron-glia cultures were seeded (5×10^5/well) in 24 well plates precoated with poly D-lysine. Thirty-six hours postseeding, 5-10 μM cytosine β-D-arabinofuranoside was added to the culture. After 2 days, the cytosine β-D-arabinofuranoside was removed and replaced with fresh media. Neuron-enriched cultures are 98% pure, as indicated by ICC staining with OX-42 and GFAP antibodies. Neuron-enriched cultures were treated 7 days post-seeding. For microglia add-back cultures, the microglia were plated on top of the neuron-enriched culture at 6 days postseeding, resulting in the addition of either 10% (500 μL of 1×10^5) or 20% (500 μL of 2×10^5) microglia. Cells were treated 7 days after the initial seeding of the neuron-enriched cultures."}, "[4]": {"test_system": "DA neurons", "test": "[3H] DA uptake, MMT alone in rat mesencephalic neuron-glia cultures (neurotrophic effect)", "assay_type": "cell-based", "settings": "for increase of DA uptake capacity by MMT alone: one week", "procedure": "Rat and mouse ventral mesencephalic neuron-glia cultures were prepared using a described protocol (Gao H M, Hong J S, Zhang W Q, Liu B (2002) Distinct Role for Microglia in Rotenone-Induced Degeneration of Dopaminergic Neurons. J Neurosci 22(3):782-790). Briefly, midbrain tissues were dissected from day 14 Fisher 344 rat embryos or day 14 mouse embryos (PHOX^+/+ or PHOX^−/−). Cells were dissociated via gentle mechanical trituration in minimum essential medium (MEM) and immediately seeded (5×10^5/well) in poly D-lysine (20 μg/mL) precoated 24-well plates. Cells were seeded in maintenance media and treated with the treatment media described previously (Gao H M, Hong J S, Zhang W Q, Liu B (2002) Distinct Role for Microglia in Rotenone-Induced Degeneration of Dopaminergic Neurons. J Neurosci 22(3):782-790). Three days after seeding, the cells were replenished with 500 μL of fresh maintenance media. Cultures were exposed 7 days after seeding. At the time of treatment, the composition of the cultures was approximately 48% astrocytes, 11% microglia, 40% neurons, and 1 to 1.5% TH-immunoreactive (ir) neurons.\nCells were incubated in Krebs-Ringer buffer (16 mM NaH2PO4, 1.2 mM MgSO4, 1.3 mM EDTA, […], for 21 min at 37° C. with 1 μM [^3H] DA. Nonspecific uptake was blocked for DA with 10 μM mazindole. After incubation, cells were washed three times with 1 mL/well of ice-cold Krebs-Ringer buffer. Cells were then lysed with 0.5 mL/well of 1 N NaOH and mixed with 15 mL of scintillation fluid. Radioactivity was measured on a scintillation counter, where specific [^3H] DA uptake was calculated by subtracting the mazindole.\nRat mesencephalic neuron-glia cultures were pretreated for 30 min with vehicle or 1, 3, 10 μM MMT before adding LPS (2.5 to 5 ng/ml) to the cultures. One week later, the neurotoxic effect of LPS on DA neurons were assessed by both [H^3] DA uptake, which measures the functional capacity of high affinity uptake of DA cells and cell count of tyrosine hydroxylase-positive (TH-ir) cells. [H^3] […]"}}}
{"smiles": "CC12CC3CC(C)(C1)CC(N)(C3)C2.Cl", "note": "[MMT, 1-amino-3,5-dimethyladamantane hydrochloride]", "values": [{"measurement": "release of TNF-α", "setting": "[1]", "value": "reduced"}, {"measurement": "competing the binding of [3H]-labeled naloxine", "setting": "[2]", "value": "effective in competing the binding"}, {"measurement": "neurotrophic effect on DA neurons", "setting": "[3]; 10% of microglia added back to neuron-enriched cultures", "value": "not microglia-added cultures"}, {"measurement": "neurotrophic effect on DA neurons", "setting": "[3]; microglia-depleted neuron/glia culture", "value": "neurotrophic in microglia-depleted neuron/glia culture"}, {"measurement": "neurotrophic effect on DA neurons", "setting": "[3]; neuron-enriched cultures", "value": "failed to show any protective effect"}, {"measurement": "increase of DA uptake capacity by MMT alone", "setting": "[4]; 3 μM MMT", "value": 30, "unit": "%"}, {"measurement": "increase of DA uptake capacity by MMT alone", "setting": "[4]; 10 μM MMT", "value": 80, "unit": "%"}, {"measurement": "effect against spontaneous DA neurons death", "setting": "[4]; MMT alone, rat primary midbrain neuron-glia cultures", "value": "dose-dependent surviving-promoting effects"}]}
